Laboratory results from paper PMC8082539 (ACS chemical biology, 2021).

Target: T1, apocarotenoid oxygenase ACO from Synechocystis (Synechocystis sp. PCC 6803, UniProt P74334)
T1 sequence (P74334 1-490): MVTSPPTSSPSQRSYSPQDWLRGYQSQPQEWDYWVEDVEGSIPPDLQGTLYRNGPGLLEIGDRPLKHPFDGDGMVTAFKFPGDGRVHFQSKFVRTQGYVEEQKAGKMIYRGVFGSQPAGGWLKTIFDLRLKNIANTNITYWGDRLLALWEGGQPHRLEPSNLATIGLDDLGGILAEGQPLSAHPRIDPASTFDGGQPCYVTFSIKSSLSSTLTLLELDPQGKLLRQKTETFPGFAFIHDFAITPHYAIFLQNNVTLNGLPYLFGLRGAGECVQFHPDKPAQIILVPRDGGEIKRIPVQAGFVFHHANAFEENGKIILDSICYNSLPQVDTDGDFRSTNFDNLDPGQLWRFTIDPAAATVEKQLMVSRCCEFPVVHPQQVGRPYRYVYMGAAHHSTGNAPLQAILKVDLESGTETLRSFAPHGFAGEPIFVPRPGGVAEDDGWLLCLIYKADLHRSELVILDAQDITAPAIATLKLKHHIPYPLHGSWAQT
Assay: HPLC at […] nm, UV-visible spectra
Type: biochemical
Conditions: product 3-hydroxy-retinal

How did the “HPLC at 360 nm, UV-visible spectra” value turn out when `CC1=C(/C=C/C(C)=C/C=C/C(C)=C/C=C/C=C(\C)C=O)C(C)(C)C[C@H](O)C1` [3-hydroxy-β-apo-12’-carotenal] was run?
The value was “first incubated 3-hydroxy-β-apo-12’-carotenal with the bacterial ACO to produce 3-hydroxy-retinal”.
